Measured values: patent US20230364079A1, “COMPOUND AS BRAIN-PERMEABLE BTK OR HER2 INHIBITOR, PREPARATION METHOD THEREFOR, AND USE THEREOF” (CHENGDU HYPERWAY PHARMACEUTICALS CO., LTD., priority 2020, published 2023)

Each compound was assayed against BTK wild-type kinase (Homo sapiens (Human), UniProt Q06187) (assay: BTK kinase activity inhibition test in vitro (Caliper EZ Reader)).
Assay type: biochemical
Experimental: In the tests on the activity of inhibiting BTK and HER2 kinase in vitro in the examples of the present disclosure, powder of the compound was dissolved in 100% DMSO to prepare a 10 mM stock solution and stored at-20° C. in the dark. […] In addition, the compounds were subjected to experiments such as liver microsome metabolic stability, rat PK, rat brain penetration rate, and drug efficacy model in the examples of the present disclosure.
Compound powders were dissolved in 100% DMSO to make 10 mM stock solutions, which were stored at -20° C. in the dark.
2: Kinase Reaction Process
(1) Preparation of 1 × Kinase buffer.
(5) After centrifugation at 1000 rpm for 30 seconds, the reaction plate was shaken to mix well and incubated at room temperature for 10 min.
(6) A 5/3-fold final concentration of a mixed solution of ATP and Kinase substrate 2 was prepared with 1 × Kinase buffer.
(7) 15 µL of the mixed solution of ATP and substrate with 5/3-fold final concentration was added to start the reaction.
(8) The 384-well plate was centrifuged at 1000 rpm for 30 seconds, shaken to mix well, and incubated at room temperature for 10 min.
(9) 30 µL of a stop solution was added to stop the kinase reaction, and after centrifugation at 1000 rpm for 30 seconds, the plate was shaken to mix well;
(10) The conversion rate was read with Caliper EZ Reader.
where Conversion%_sample indicates the conversion rate reading of the sample; Conversion%_min is the average reading of the negative control wells, representing the conversion rate reading of the wells without enzyme activity; Conversion%_max is the average reading of the ratio of the positive control wells, representing the conversion rate reading of the wells without compound inhibition.
Dose-Response Curve Fitting
With the log value of the concentration as the X-axis, and the percentage inhibition rate as the Y-axis, the dose-effect curve was fitted using the log(inhibitor) vs. response-Variable slope of the analysis software GraphPad Prism 5, so as to determine the IC50 value of each compound on the enzyme activity.
The calculation formula was: […]

BTK wild-type kinase, sequence (Q06187 whole entry): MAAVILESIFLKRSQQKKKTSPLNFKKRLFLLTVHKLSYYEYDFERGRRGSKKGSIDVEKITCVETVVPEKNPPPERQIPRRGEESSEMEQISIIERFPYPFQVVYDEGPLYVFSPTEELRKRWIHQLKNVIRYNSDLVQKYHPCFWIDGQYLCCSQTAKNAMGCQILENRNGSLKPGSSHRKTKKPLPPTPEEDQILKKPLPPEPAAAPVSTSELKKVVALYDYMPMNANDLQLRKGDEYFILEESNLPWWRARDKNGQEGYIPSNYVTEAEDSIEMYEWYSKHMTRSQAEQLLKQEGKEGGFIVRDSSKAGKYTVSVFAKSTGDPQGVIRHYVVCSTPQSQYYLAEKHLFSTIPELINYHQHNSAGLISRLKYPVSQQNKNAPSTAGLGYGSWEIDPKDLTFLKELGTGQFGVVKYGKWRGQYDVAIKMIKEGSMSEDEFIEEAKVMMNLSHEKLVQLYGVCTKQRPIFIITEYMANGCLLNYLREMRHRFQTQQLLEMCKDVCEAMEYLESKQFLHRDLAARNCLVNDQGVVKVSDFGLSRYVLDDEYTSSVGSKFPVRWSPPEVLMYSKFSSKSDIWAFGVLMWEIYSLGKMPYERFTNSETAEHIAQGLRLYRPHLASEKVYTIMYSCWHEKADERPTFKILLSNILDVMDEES

Compound	IC50 [nM]
Nc1nccn2c(C3CCC(CO)OC3)nc(-c3ccc(C(=O)Nc4cccc(Br)n4)cc3)c12 (stereo not drawn) [Compound 72]	100 to 1000
Nc1nccn2c(C34CCC(CO)(CC3)OC4)nc(-c3ccc(C(F)(F)c4cccc(F)c4)cc3)c12 [Compound 142]	100 to 1000
Nc1ncc(Cl)n2c(C3CCC(CO)OC3)nc(-c3ccc(C(=O)Nc4ccccn4)cc3F)c12 (stereo not drawn) [Compound 4]	20 to 100
Nc1nccn2c(C3CCC(CO)OC3)nc(-c3cnc(Oc4cccc(Cl)c4)nc3)c12 (stereo not drawn) [Compound 81]	> 1000
Cc1ccc(Oc2ccc(-c3nc(C4CCC(CO)OC4)n4ccnc(N)c34)cc2)cc1 (stereo not drawn) [Compound 78]	20 to 100
Nc1nccn2c(C34CCC(CO)(CC3)OC4)nc(-c3ccc(C(F)(F)c4cccc(C5CC5)c4)cc3)c12 [Compound 143]	20 to 100
Nc1cccc(NC(=O)c2ccc(-c3nc(C4CCC(CO)OC4)n4ccnc(N)c34)cc2)n1 (stereo not drawn) [Compound 71]	20 to 100
Cc1cccnc1NC(=O)c1ccc(-c2nc(C3CCC(CO)OC3)n3ccnc(N)c23)cc1 (stereo not drawn) [Compound 97]	100 to 1000
COc1cccc(C(F)(F)c2ccc(-c3nc(C4CCC(CO)OC4)n4ccnc(N)c34)cc2)c1C#N (stereo not drawn) [Compound 123]	20 to 100
CC(C)(c1ccccc1)c1ccc(-c2nc(C3CCC(CO)OC3)n3ccnc(N)c23)cc1 (stereo not drawn) [Compound 131]	> 1000
Nc1nccn2c(C3CCC(CO)OC3)nc(-c3ccc(C(=O)c4ccccc4O)cc3)c12 (stereo not drawn) [Compound 66]	20 to 100
Nc1nccc2c1c(-c1ccc(C(=O)Nc3ccccn3)cc1F)nn2C1CCC(CO)OC1 (stereo not drawn) [Compound 57]	20 to 100
Nc1nccn2c(C3CCC(CO)OC3)nc(-c3ccc(Oc4ccc5c(c4F)OCO5)cc3)c12 (stereo not drawn) [Compound 85]	100 to 1000
Nc1nccn2c(C34CCC(CO)(CC3)OC4)nc(-c3ccc(C(F)(F)c4cccc(F)c4F)cc3)c12 [Compound 130]	5 to 20
N#Cc1ccnc(NC(=O)c2ccc(-c3nc(C45COC(CO)(C4)C5)n4ccnc(N)c34)cc2)c1 [Compound 135]	5 to 20
Nc1ncc(Cl)n2c(C34CCC(CO)(CC3)OC4)nc(-c3ccc(C(=O)Nc4ccccn4)cc3F)c12 [Compound 36]	5 to 20
Nc1nccn2c(C3CCC(CO)OC3)nc(-c3ccc(C(=O)c4ccc(Cl)cc4)cc3)c12 (stereo not drawn) [Compound 102]	20 to 100
Nc1nccn2c(C3CCC(CO)OC3)nc(-c3ccc(C(=O)Nc4ccc(Cl)cn4)cc3)c12 (stereo not drawn) [Compound 68]	20 to 100
Nc1nccn2c(C3CCC(CO)OC3)nc(-c3ccc(C(F)(F)c4ccccc4)cc3F)c12 (stereo not drawn) [Compound 113]	5 to 20
Nc1nccn2c(C34CCC(CO)(CC3)OC4)nc(-c3ccc(C(F)(F)c4ccc(F)cc4)cc3)c12 [Compound 141]	100 to 1000
COc1cccc(Oc2ccc(-c3nc(C45CCC(CO)(CC4)OC5)n4ccnc(N)c34)c(F)c2)c1F [Compound 38]	5 to 20

Results, then the compound that gave them:

IC50 [nM]	Compound
5 to 20	COc1cccc(Oc2ccc(-c3nn(C4CCC(CO)OC4)c4c(Cl)cnc(N)c34)cc2)c1F (stereo not drawn) [Compound 52]
< 5	COc1cccc(Oc2ccc(-c3nc(C4CCC(CO)OC4)n4c(Cl)cnc(N)c34)cc2)c1C#N (stereo not drawn) [Compound 100]
< 5	COc1cccc(Oc2ccc(-c3nc(C45CCC(CO)(CC4)OC5)n4ccnc(N)c34)c(F)c2)c1C#N [Compound 115]
5 to 20	COc1cccc(Oc2ccc(-c3nn(C4CCC(CO)OC4)c4ccnc(N)c34)cc2)c1F (stereo not drawn) [Compound 30]
5 to 20	Nc1ncnc2c1c(-c1ccc(C(=O)Nc3ccccn3)cc1)nn2C1CCC(CO)OC1 (stereo not drawn) [Compound 108]
< 5	COc1cccc(Oc2ccc(-c3nc(C45CCC(CO)(CC4)OC5)n4c(Cl)cnc(N)c34)cc2)c1F [Compound 39]
5 to 20	COc1cccc(C(F)(F)c2ccc(-c3nc(C45CCC(CO)(CC4)OC5)n4ccnc(N)c34)cc2)c1F [Compound 129]
< 5	Nc1ncc(Cl)n2c(C3CCC(CO)OC3)nc(-c3ccc(C(=O)Nc4cc(C(F)(F)F)ccn4)cc3)c12 (stereo not drawn) [Compound 110]
< 5	COc1cccc(Oc2ccc(-c3nc(C4CCC(CO)OC4)n4ccnc(N)c34)c(F)c2)c1F (stereo not drawn) [Compound 10]
